Data taken from patent US9499550B2 (BRISTOL-MYERS SQUIBB COMPANY, priority 2012, dated 2016).
Like-named read-outs stand apart in the source and are kept apart here.

Tests used:
[1] = tested on: HCV genotype 1a (H77 strain) replicon in HUH-7 cells; experiment: HCV replicon luciferase reporter assay, genotype 1a; assay type: cell-based; conditions: Hepatitis C virus, Huh-7, 72 h, 3 days incubation
Method in brief: (§1)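 Replicon inhibition for both genotypes was measured as Renilla luciferase signal (EnduRen, 7.5 μM final, 2 h) after 3-day, 37° C exposure of replicon-bearing HUH-7 cells in 4% FCS DMEM, 0.5% DMSO. The 1b construct carries S1179I; the 1a H77 construct carries P1496L and S2204I. Twenty-point, 3-fold dilutions were fitted four-parametrically for EC50, and CC50 was taken from multiplexed Cell Titer-Blue.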

[2] = tested on: HCV genotype 1b (Con1) replicon in HUH-7 cells; experiment: HCV replicon luciferase reporter assay, genotype 1b; assay type: cell-based; conditions: Hepatitis C virus, Huh-7, 72 h, 3 days incubation
Method in brief: as §1

[3] = HCV genotype 1a replicon luciferase assay, range class, read-out: LE_1a (EC50, range)
[4] = HCV genotype 1b replicon luciferase assay, range class, read-out: LE_1b (EC50, range)
[5] = HCV genotype 1a replicon luciferase, read-out: LE_1a (EC50, range)
[6] = HCV genotype 1b replicon luciferase, read-out: LE_1b (EC50, range)

Structure (SMILES) | EC50 [1, 3] | EC50 [2, 4] | EC50 [1, 5] | EC50 [2, 6] | other results
COc1ccc2c(O[C@@H]3C[C@H]4C(=O)N[C@]5(C(=O)NS(=O)(=O)C6(C(F)F)CC6)C[C@H]5/C=C\CC[C@@H](C)C[C@@H](C)[C@H](NC(=O)OC(C)(C)C)C(=O)N4C3)nc(OC)cc2c1 [Compound 1180, tert-butyl ((2R,6S,7R,9R,13aS,14aR,16aS,Z)-14a-(((1-(difluoromethyl)cyclopropyl)sulfonyl)carbamoyl)-2-((3,6-dimethoxyisoquinolin-1-yl)oxy)-7,9-dimethyl-5,16-dioxo-1,2,3,5,6,7,8,9,10,11,13a,14,14a,15,16,16a-hexadecahydrocyclopropa[e]pyrrolo[1,2-a][1,4]diazacyclopentadecin-6-yl)carbamate] | < 5.46 nM | < 5.46 nM |  |  | 
[2H]C([2H])([2H])C(OC(=O)N[C@@H]1C(=O)N2C[C@H](Oc3nccc4cc(OC)c(F)cc34)C[C@H]2C(=O)N[C@]2(C(=O)NS(=O)(=O)C3CC3)C[C@H]2/C=C\CC[C@@H](C)C[C@H]1CC)(C([2H])([2H])[2H])C(F)(F)F [Compound 5471] |  |  | 1.01 to 5 nM | 0.1 to 0.5 nM | 
COc1cc2ccccc2c(O[C@@H]2C[C@H]3C(=O)N[C@]4(C(=O)NS(=O)(=O)C5CC5)C[C@H]4/C=C\CC[C@H](C)C[C@@H](C)[C@H](NC(=O)OC(C)(C)C(F)(F)F)C(=O)N3C2)n1 [Compound 6017, 1,1,1-trifluoro-2-methylpropan-2-yl((2R,6S,7R,9S,13aS,14aR,16aS,Z)-14a-((cyclopropylsulfonyl)carbamoyl)-2-((3-methoxyisoquinolin-1-yl)oxy)-7,9-dimethyl-5,16-dioxo-1,2,3,5,6,7,8,9,10,11,13a,14,14a,15,16,16a-hexadecahydrocyclopropa[e]pyrrolo[1,2-a][1,4]diazacyclopentadecin-6-yl)carbamate] |  |  | < 5.46 nM | < 5.46 nM | 
C[C@@H]1CCC(O)C[C@@H]2C[C@@]2(C(=O)NS(=O)(=O)C2(C)CC2)NC(=O)[C@@H]2C[C@@H](Oc3ncc(OC4CC4)c4ccccc34)CN2C(=O)[C@@H](NC(=O)OC(C)(C)C(F)(F)F)[C@H](C)C1 (stereo partly drawn) [Compound 2001, 1,1,1-trifluoro-2-methylpropan-2-yl ((2R,6S,7R,9R,13aS,14aR,16aS)-2-((4-cyclopropoxyisoquinolin-1-yl)oxy)-12-hydroxy-7,9-dimethyl-14a-(((1-methylcyclopropyl)sulfonyl)carbamoyl)-5,16-dioxooctadecahydrocyclopropa[e]pyrrolo[1,2-a][1,4]diazacyclopentadecin-6-yl)carbamate] | 4.82 to 103 nM | 4.82 to 103 nM |  |  | 
COc1ccc2c(O[C@@H]3C[C@H]4C(=O)N[C@]5(C(=O)NS(=O)(=O)C6(C)CC6)C[C@H]5/C=C\CC[C@H](C)C[C@@H](C)[C@H](NC(=O)OC(C)(C)C(F)(F)F)C(=O)N4C3)nc(N3CCOCC3)cc2c1 [Compound 3094, 1,1,1-trifluoro-2-methylpropan-2-yl((2R,6S,7R,9S,13aS,14aR,16aS,Z)-2-((6-methoxy-3-morpholinoisoquinolin-1-yl)oxy)-7,9-dimethyl-14a-(((1-methylcyclopropyl)sulfonyl)carbamoyl)-5,16-dioxo-1,2,3,5,6,7,8,9,10,11,13a,14,14a,15,16,16a-hexadecahydrocyclopropa[e]pyrrolo[1,2-a][1,4]diazacyclopentadecin-6-yl)carbamate] | 4.82 to 103 nM | < 5.46 nM |  |  | 
C[C@@H]1CC/C=C\[C@@H]2C[C@@]2(C(=O)NS(=O)(=O)C2CC2)NC(=O)[C@@H]2C[C@@H](Oc3nccc4c5c(ccc34)N(C)CCO5)CN2C(=O)[C@@H](NC(=O)OC(C)(C)C)[C@H](C)C1 [Compound 5276, tert-butyl ((2R,6S,7R,9R,13aS,14aR,16aS,Z)-14a-((cyclopropylsulfonyl)carbamoyl)-7,9-dimethyl-2-((4-methyl-3,4-dihydro-2H-[1,4]oxazino[2,3-f]isoquinolin-7-yl)oxy)-5,16-dioxo-1,2,3,5,6,7,8,9,10,11,13a,14,14a,15,16,16a-hexadecahydrocyclopropa[e]pyrrolo[1,2-a][1,4]diazacyclopentadecin-6-yl)carbamate] |  |  | < 5.46 nM | < 5.46 nM | 
CC(C)n1nc(O[C@@H]2C[C@H]3C(=O)N[C@]4(C(=O)NS(=O)(=O)C5(C)CC5)C[C@H]4/C=C\CC[C@H](C)C[C@@H](C)[C@H](NC(=O)OC(C)(C)C(C)(F)F)C(=O)N3C2)c2ccccc2c1=O [Compound 1015, 3,3-difluoro-2-methylbutan-2-yl((2R,6S,7R,9S,13aS,14aR,16aS,Z)-2-((3-isopropyl-4-oxo-3,4-dihydrophthalazin-1-yl)oxy)-7,9-dimethyl-14a-(((1-methylcyclopropyl)sulfonyl)carbamoyl)-5,16-dioxo-1,2,3,5,6,7,8,9,10,11,13a,14,14a,15,16,16a-hexadecahydrocyclopropa[e]pyrrolo[1,2-a][1,4]diazacyclopentadecin-6-yl)carbamate] | > 87.4 nM | > 87.4 nM |  |  | 
COCCn1nc(O[C@@H]2C[C@H]3C(=O)N[C@]4(C(=O)NS(=O)(=O)C5(C)CC5)C[C@H]4/C=C\CC[C@H](C)C[C@@H](C)[C@H](NC(=O)OC(C)(C)C(C)(F)F)C(=O)N3C2)c2ccccc2c1=O [Compound 1019, 3,3-difluoro-2-methylbutan-2-yl((2R,6S,7R,9S,13aS,14aR,16aS,Z)-2-((3-(2-methoxyethyl)-4-oxo-3,4-dihydrophthalazin-1-yl)oxy)-7,9-dimethyl-14a-(((1-methylcyclopropyl)sulfonyl)carbamoyl)-5,16-dioxo-1,2,3,5,6,7,8,9,10,11,13a,14,14a,15,16,16a-hexadecahydrocyclopropa[e]pyrrolo[1,2-a][1,4]diazacyclopentadecin-6-yl)carbamate] | > 87.4 nM | > 87.4 nM |  |  | EC50 ([1]; HCV genotype 1a replicon luciferase assay, read-out: LE_1a (EC50)): ≥ 1000 nM; EC50 ([2]; HCV genotype 1b replicon luciferase assay, read-out: LE_1b (EC50)): 506 nM
CC[C@@H]1C[C@@H](C)CC/C=C\[C@@H]2C[C@@]2(C(=O)NS(=O)(=O)C2(C)CC2)NC(=O)[C@@H]2C[C@@H](Oc3nnc(OC)c4ccccc34)CN2C(=O)[C@H]1NC(=O)OC(C)(C)C(F)(F)F [Compound 5017, 1,1,1-trifluoro-2-methylpropan-2-yl((2R,6S,7R,9S,13aS,14aR,16aS,Z)-7-ethyl-2-((4-methoxyphthalazin-1-yl)oxy)-9-methyl-14a-(((1-methylcyclopropyl)sulfonyl)carbamoyl)-5,16-dioxo-1,2,3,5,6,7,8,9,10,11,13a,14,14a,15,16,16a-hexadecahydrocyclopropa[e]pyrrolo[1,2-a][1,4]diazacyclopentadecin-6-yl)carbamate] |  |  | 4.82 to 103 nM | < 5.46 nM | 
COc1cccc2c(O[C@@H]3C[C@H]4C(=O)N[C@]5(C(=O)NS(=O)(=O)C6(C)CC6)C[C@H]5/C=C\CC[C@H](C)C[C@@H](C)[C@H](NC(=O)OC(C)(C)C(F)(F)F)C(=O)N4C3)nccc12 [Compound 3037, 1,1,1-trifluoro-2-methylpropan-2-yl((2R,6S,7R,9S,13aS,14aR,16aS,Z)-2-((5-methoxyisoquinolin-1-yl)oxy)-7,9-dimethyl-14a-(((1-methylcyclopropyl)sulfonyl)carbamoyl)-5,16-dioxo-1,2,3,5,6,7,8,9,10,11,13a,14,14a,15,16,16a-hexadecahydrocyclopropa[e]pyrrolo[1,2-a][1,4]diazacyclopentadecin-6-yl)carbamate] | 4.82 to 103 nM | < 5.46 nM |  |  | 
COc1ccc2c(O[C@@H]3C[C@H]4C(=O)N[C@]5(C(=O)NS(=O)(=O)C6(CF)CC6)C[C@H]5/C=C\CC[C@@H](C)C[C@@H](C)[C@H](NC(=O)OC(C)(C)C(F)(F)F)C(=O)N4C3)nc(OC)nc2c1 [Compound 3020] |  |  |  |  | EC50 ([1]; GETYPE1A, HCV genotype 1a replicon luciferase assay, range class, read-out: LE_1a (EC50, range)): 4.82 to 103 nM; EC50 ([2]; GETYPE1B, HCV genotype 1b replicon luciferase assay, range class, read-out: LE_1b (EC50, range)): < 5.46 nM
CCn1nc(O[C@@H]2C[C@H]3C(=O)N[C@]4(C(=O)NS(=O)(=O)C5CC5)C[C@H]4/C=C\CC[C@@H](C)C[C@@H](C)[C@H](NC(=O)OC(C)(C)C(F)(F)F)C(=O)N3C2)c2ccccc2c1=O [Compound 5067, 1,1,1-trifluoro-2-methylpropan-2-yl((2R,6S,7R,9R,13aS,14aR,16aS,Z)-14a-((cyclopropylsulfonyl)carbamoyl)-2-((3-ethyl-4-oxo-3,4-dihydrophthalazin-1-yl)oxy)-7,9-dimethyl-5,16-dioxo-1,2,3,5,6,7,8,9,10,11,13a,14,14a,15,16,16a-hexadecahydrocyclopropa[e]pyrrolo[1,2-a][1,4]diazacyclopentadecin-6-yl)carbamate] |  |  | 4.82 to 103 nM | 4.82 to 103 nM | 
COc1cc2nc(C(F)(F)F)c(OC)nc2cc1O[C@@H]1C[C@H]2C(=O)N[C@]3(C(=O)NS(=O)(=O)C4(C)CC4)C[C@H]3/C=C\CC[C@@H](C)C[C@@H](C)[C@H](NC(=O)OC(C)(C)C(F)(F)F)C(=O)N2C1 [Compound 4353] |  |  |  |  | EC50 ([1]; GETYPE1A, HCV genotype 1a replicon luciferase, read-out: LE_1a (EC50, range)): 5.01 to 35 nM; EC50 ([2]; GETYPE1B, HCV genotype 1b replicon luciferase, read-out: LE_1b (EC50, range)): 1.01 to 5 nM
